Our source for the Activity and Ki values is ChEMBL document CHEMBL1141773, “SERCA-inhibiting activity of C-19 terpenolides from Thapsia garganica and their possible biogenesis” (J Nat Prod, 2005).

Experiment [1] deals with Lytechinus pictus. As to the kind of experiment: Inhibition of SERCA in sea urchin eggs assessed as Ca2+ leak rate. Also noted: scale not given: the % may be the effect or the level left.
Experiment [2] in a line: Inhibition of SERCA in sea urchin eggs assessed as Ca2+ leak rate at 10 uM relative to thapsigargin. Also noted: species or system Lytechinus pictus.
In experiment [3] the test system is Lytechinus pictus. As to the kind of experiment: Inhibition of SERCA in sea urchin eggs assessed as Ca2+ leak rate at 10 uM.

With `C=C[C@@]1(C)CC[C@H]2C(C)(C)[C@H]3C=C4C=C(OC)OC(=O)[C@@H]1[C@@]42OC3=O`, the Activity with Lytechinus pictus [1] worked out at 65.4%.

Turning to `C=C[C@@]1(C)CC[C@H]2[C@](C)(C(=O)OC)[C@H]3C=C4C=C(OC)OC(=O)[C@@H]1[C@@]42OC3=O`, the Activity in the experiment with Lytechinus pictus [1] stood at 61.4%.

Turning to `C=C[C@@]1(C)CC[C@H]2[C@](C)(COC(C)=O)[C@H]3C=C4C=C(OC)OC(=O)[C@@H]1[C@@]42OC3=O`, the Activity with Lytechinus pictus [1] came to 64.2%.

As for `C=C[C@]1(C)CC[C@H]2C(C)(C)[C@H]3C=C4C=C(OC)OC(=O)[C@@H]1[C@@]42OC3=O`, the Activity with Lytechinus pictus [1] came out at 65.4%.

On to `C/C=C(/C)C(=O)O[C@H]1C(C)=C2[C@H]([C@@H]1OC(=O)CCCCCCC)[C@@](C)(OC(C)=O)C[C@H](OC(=O)CCC)[C@@]1(O)[C@H]2OC(=O)[C@@]1(C)O` [THAPSIGARGIN], for which, in experiment [2], the Ki was 2 pM. In addition, the Activity in the experiment with Lytechinus pictus [3] stood at 81 RFU/min.

Usually Ki stands for the dissociation constant of the complex between target and ligand, obtained from inhibition or displacement.
